Here are results for 26 compounds from PubChem BioAssay AID256 (DTP/NCI, 2004).

Where “and” joins values, the source holds several entries; their conditions need not be identical. Identical values can stand only once. Inconclusive results and toxic doses are left out.

The subject of the assay is CD2F1 mice, L1210 leukemia ip, survival T/C. Nature of the assay: NCI In Vivo Anticancer Drug Screen. Data for tumor model L1210 Leukemia (intraperitoneal) in CD2F1 (CDF1) mice. The conditions noted are these: higher = longer survival. In short, it runs like this:
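Transplantable tumor in mice; compound-treated vs vehicle-treated groups. Read-out = treated/control ratio of the measured endpoint.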

The mark [1] stands for this setting: endpoint: mean survival time, dose: 25.0 mg/kg/injection, schedule: Q04DX003 (ip), vehicle: saline.
The mark [2] stands for this setting: endpoint: mean survival time, dose: 50.0 mg/kg/injection, schedule: Q04DX003 (ip), vehicle: saline.
The mark [3] stands for this setting: endpoint: mean survival time, dose: 100.0 mg/kg/injection, schedule: Q04DX003 (ip), vehicle: saline.
The mark [4] stands for this setting: endpoint: mean survival time, dose: 200.0 mg/kg/injection, schedule: Q04DX003 (ip), vehicle: saline.
Where [5] appears, read: endpoint: mean survival time, dose: 400.0 mg/kg/injection, schedule: Q04DX003 (ip), vehicle: saline.
Setting [6] is: endpoint: mean survival time, dose: 10.0 mg/kg/injection, schedule: Q01DX009 (ip), vehicle: Klucel (hydroxypropylcellulose) (HPC).
Where [7] appears, read: endpoint: mean survival time, dose: 20.0 mg/kg/injection, schedule: Q01DX009 (ip), vehicle: saline with Tween-80.
Setting [8] is: endpoint: mean survival time, dose: 50.0 mg/kg/injection, schedule: Q01DX009 (ip), vehicle: saline with Tween-80.
Where [9] appears, read: endpoint: mean survival time, dose: 100.0 mg/kg/injection, schedule: Q04DX003 (ip), vehicle: saline with Tween-80.
Where [10] appears, read: endpoint: mean survival time, dose: 200.0 mg/kg/injection, schedule: Q04DX003 (ip), vehicle: saline with Tween-80.
Where [11] appears, read: endpoint: mean survival time, dose: 400.0 mg/kg/injection, schedule: Q04DX003 (ip), vehicle: saline with Tween-80.
Where [12] appears, read: endpoint: mean survival time, dose: 100.0 mg/kg/injection, schedule: Q01DX009 (ip), vehicle: saline with Tween-80.
Setting [13] is: endpoint: mean survival time, dose: 200.0 mg/kg/injection, schedule: Q01DX009 (ip), vehicle: saline with Tween-80.
The mark [14] stands for this setting: endpoint: mean survival time, dose: 100.0 mg/kg/injection, schedule: Q04DX002 (ip), vehicle: saline with Tween-80.
The mark [15] stands for this setting: endpoint: mean survival time, dose: 200.0 mg/kg/injection, schedule: Q04DX002 (ip), vehicle: saline with Tween-80.
Setting [16] is: endpoint: mean survival time, dose: 400.0 mg/kg/injection, schedule: Q04DX002 (ip), vehicle: saline with Tween-80.
The mark [17] stands for this setting: endpoint: mean survival time, dose: 400.0 mg/kg/injection, schedule: Q01DX009 (ip), vehicle: saline with Tween-80.

Take `CCC(=O)c1ccc2c(c1)N(C(C)CN(C)C)c1ccccc1S2` (configuration not stated): the T/C is, setting by setting: under setting [1], 97 % of control; under setting [2], 97 % of control; under setting [3], 101 % of control.
For `c1ccc2snnc2c1`, the T/C by setting is: (endpoint: mean survival time, dose: 100.0 mg/kg/injection, schedule: Q01DX001 (ip), vehicle: other) 97 % of control; (endpoint: mean survival time, dose: 200.0 mg/kg/injection, schedule: Q01DX001 (ip), vehicle: other) 103 % of control; (endpoint: mean survival time, dose: 400.0 mg/kg/injection, schedule: Q01DX001 (ip), vehicle: other) 88 % of control.
On to `CCN(CC)CC(=O)Nc1c(Cl)cccc1Cl`, for which the T/C (endpoint: mean survival time, dose: 100.0 mg/kg/injection, schedule: Q01DX009 (ip), vehicle: saline) is 98 % of control; the T/C under setting [3] is 104 % of control; the T/C (endpoint: mean survival time, dose: 200.0 mg/kg/injection, schedule: Q01DX009 (ip), vehicle: saline) is 92 % of control; the T/C under setting [4] was 108 % of control; the T/C under setting [5] is 102 % of control.
For the compound `COc1ccc2nc3cc(Cl)ccc3c(N)c2c1`, the T/C (endpoint: mean survival time, dose: 2.5 mg/kg/injection, schedule: Q01DX009 (ip), vehicle: Klucel (hydroxypropylcellulose) (HPC)) is 110 % of control; the T/C (endpoint: mean survival time, dose: 5.0 mg/kg/injection, schedule: Q01DX009 (ip), vehicle: Klucel (hydroxypropylcellulose) (HPC)) is 103 % of control; the T/C under setting [6] is 98 % of control.
Consider `C[n+]1cccc(NC(=O)c2ccc(NC(=O)C34CCC(C(=O)Nc5ccc(C(=O)Nc6ccc[n+](C)c6)cc5)(CC3)CC4)cc2)c1`, for which the T/C is 113 % of control (endpoint: mean survival time, dose: 2.5 mg/kg/injection, schedule: Q01DX009 (ip), vehicle: saline with Tween-80); 123 % of control and 104 % of control (endpoint: mean survival time, dose: 5.0 mg/kg/injection, schedule: Q01DX009 (ip), vehicle: saline with Tween-80); 110 % of control (endpoint: mean survival time, dose: 10.0 mg/kg/injection, schedule: Q01DX009 (ip), vehicle: saline with Tween-80); 160 % of control under setting [7]; 108 % of control (endpoint: mean survival time, dose: 80.0 mg/kg/injection, schedule: Q01DX009 (ip), vehicle: saline with Tween-80); 106 % of control (endpoint: median survival time, dose: 3.6 mg/kg/injection, schedule: Q01DX009 (ip), vehicle: saline with Tween-80). The T/C (endpoint: median survival time, dose: 16.67 mg/kg/injection, schedule: Q01DX009 (ip), vehicle: saline with Tween-80) is 264 % of control.
With `CO[C@@]12[C@@H]3N[C@@H]3CN1C1=C(C(=O)C(N(C)c3ccc(O)cc3)=C(C)C1=O)[C@@H]2COC(N)=O`, the T/C (endpoint: median survival time, dose: 3.0 mg/kg/injection, schedule: Q01DX001 (ip), vehicle: distilled water + Tween-80) was 100 % of control; the T/C (endpoint: median survival time, dose: 6.0 mg/kg/injection, schedule: Q01DX001 (ip), vehicle: distilled water + Tween-80) is 121 % of control; the T/C (endpoint: median survival time, dose: 12.0 mg/kg/injection, schedule: Q01DX001 (ip), vehicle: distilled water + Tween-80) was 117 % of control and 102 % of control; the T/C (endpoint: median survival time, dose: 24.0 mg/kg/injection, schedule: Q01DX001 (ip), vehicle: distilled water + Tween-80) was 113 % of control.
With `CCCCCc1cccc(CC(=O)OCC)n1`, the T/C was 89 % of control under setting [3], 94 % of control under setting [4] and 94 % of control under setting [5].
As to `O=C(O)C(O)CBr` (configuration not stated), the T/C is, setting by setting: (endpoint: mean survival time, dose: 12.5 mg/kg/injection, schedule: Q04DX003 (ip), vehicle: saline) 101 % of control; under setting [1], 106 % of control; under setting [2], 106 % of control.
Regarding `Cc1cccc(C)c1C1=NCCN1`, the T/C is 98 % of control (endpoint: mean survival time, dose: 12.5 mg/kg/injection, schedule: Q01DX009 (ip), vehicle: saline with Tween-80); 98 % of control (endpoint: mean survival time, dose: 25.0 mg/kg/injection, schedule: Q01DX009 (ip), vehicle: saline with Tween-80); 98 % of control under setting [8].
On to `CCN(CC)CCNc1c2ccc(Cl)cc2nc2c1c(C)nn2C`, for which the T/C runs as follows: under setting [9], 95 % of control; under setting [10], 100 % of control; under setting [11], 100 % of control.
Consider `CC(=O)Nn1cnc2c(SCc3ccccc3)ncnc21`, for which the T/C (endpoint: mean survival time, dose: 177.0 mg/kg/injection, schedule: Q01DX001 (ip), vehicle: saline) is 95 % of control; the T/C (endpoint: mean survival time, dose: 266.0 mg/kg/injection, schedule: Q01DX001 (ip), vehicle: saline) was 95 % of control; the T/C (endpoint: mean survival time, dose: 400.0 mg/kg/injection, schedule: Q01DX001 (ip), vehicle: saline) was 97 % of control; the T/C (endpoint: mean survival time, dose: 600.0 mg/kg/injection, schedule: Q01DX001 (ip), vehicle: saline) was 96 % of control.
Turning to `O=C(CNC(=O)NCc1ccco1)N/N=C/c1c(O)ccc2ccccc12`, the T/C was 93 % of control under setting [8], 97 % of control under setting [12] and 101 % of control under setting [13].
For the compound `CN(CCC#N)Cc1cc(C(C)(C)C)cc(-c2ccccc2)c1O`, the T/C is 90 % of control under setting [12] and 90 % of control under setting [13].
On to `C[As](C)[Se]CC1OC(O)C(O)C(O)C1O` (configuration not stated), for which the T/C is 97 % of control (endpoint: mean survival time, dose: 12.5 mg/kg/injection, schedule: Q04DX003 (ip), vehicle: saline with Tween-80); 101 % of control (endpoint: mean survival time, dose: 25.0 mg/kg/injection, schedule: Q04DX003 (ip), vehicle: saline with Tween-80); 98 % of control (endpoint: mean survival time, dose: 50.0 mg/kg/injection, schedule: Q04DX003 (ip), vehicle: saline with Tween-80).
For `CCCCCCCCCCCCNC(=O)Nc1cccc(OC)c1`, the T/C is 94 % of control under setting [14], 94 % of control under setting [15] and 87 % of control under setting [16].
For `O=c1[nH]cc(Cl)cc1Cl`, the T/C by setting is: (endpoint: mean survival time, dose: 100.0 mg/kg/injection, schedule: Q04DX003 (ip), vehicle: other) 91 % of control; (endpoint: mean survival time, dose: 200.0 mg/kg/injection, schedule: Q04DX003 (ip), vehicle: other) 103 % of control; (endpoint: mean survival time, dose: 400.0 mg/kg/injection, schedule: Q04DX003 (ip), vehicle: other) 105 % of control.
As for `CC(C)=CCO`, the T/C was 105 % of control under setting [3], 94 % of control under setting [4] and 94 % of control under setting [5].
On to `CCN1CCCC(Nc2nc(Nc3ccc(Cl)c(Cl)c3)nc3ccc(Cl)cc23)C1` (configuration not stated), for which the T/C under setting [9] was 89 % of control and the T/C under setting [10] was 94 % of control.
For the compound `CCOC(=O)C1CC(=O)C2/C(=C(\O)c3ccccc3)C=C([N+](=O)[O-])C1C2[N+](=O)[O-]` (configuration not stated), the T/C under setting [14] was 94 % of control, the T/C under setting [15] was 94 % of control and the T/C under setting [16] was 96 % of control.
Consider `CC1(C)N=C(N)N=C(N)N1c1ccc(CCCCc2ccc(S(=O)(=O)F)cc2)c(Cl)c1`, for which the T/C reads like this: (endpoint: mean survival time, dose: 13.0 mg/kg/injection, schedule: Q01DX009 (ip), vehicle: saline with Tween-80) 116 % of control; under setting [7], 120 % of control; (endpoint: mean survival time, dose: 45.0 mg/kg/injection, schedule: Q01DX009 (ip), vehicle: saline with Tween-80) 93 % of control.
`O=C(O)CSCc1ccc(Cl)cc1Cl`: the T/C runs as follows: (endpoint: mean survival time, dose: 50.0 mg/kg/injection, schedule: Q01DX009 (ip), vehicle: Klucel (hydroxypropylcellulose) (HPC)) 98 % of control; (endpoint: mean survival time, dose: 100.0 mg/kg/injection, schedule: Q01DX009 (ip), vehicle: Klucel (hydroxypropylcellulose) (HPC)) 87 % of control; (endpoint: mean survival time, dose: 200.0 mg/kg/injection, schedule: Q01DX009 (ip), vehicle: Klucel (hydroxypropylcellulose) (HPC)) 93 % of control.
Consider `O=C1COC(=O)N1`, for which the T/C under setting [9] is 107 % of control, the T/C under setting [10] is 94 % of control and the T/C under setting [11] is 96 % of control.
Take `Nc1nc(SSc2nc(N)nc3c2ncn3C2OC(CO)CC2O)c2ncn(C3OC(CO)CC3O)c2n1` (configuration not stated): where the note is “endpoint: mean survival time, dose: 300.0 mg/kg/injection, schedule: Q01DX001 (ip), vehicle: saline”, the T/C was 118 % of control.
Regarding `O=C(O)c1cccc(N=Nc2ccc(N(CCCl)CCCl)cc2)c1`, the T/C is, setting by setting: under setting [6], 121 % of control; (endpoint: mean survival time, dose: 20.0 mg/kg/injection, schedule: Q01DX009 (ip), vehicle: Klucel (hydroxypropylcellulose) (HPC)) 97 % of control; (endpoint: mean survival time, dose: 40.0 mg/kg/injection, schedule: Q01DX009 (ip), vehicle: Klucel (hydroxypropylcellulose) (HPC)) 89 % of control.
Take `COC(=O)C(Cl)c1ccccc1` (configuration not stated): the T/C runs as follows: under setting [12], 95 % of control; under setting [13], 100 % of control; under setting [17], 97 % of control.
In the case of `COc1ccc(-c2ccc(-c3ccc(S(=O)(=O)c4ccc(-c5ccc(-c6ccc(OC)cc6)cc5)c(N)c4)cc3N)cc2)cc1`, the T/C by setting is: under setting [12], 110 % of control; under setting [13], 89 % of control; under setting [17], 89 % of control.
